# Like-named read-outs stand apart in the source and are kept apart here.
# Experiments:
# [1] = Pharmacokinetic study in rats, plasma (LC/MS/MS, non-compartmental); type: in vivo, rat; conditions: for Vd/F / AUC(0-t) / CL/F / Cmax / MRT / half-life / Tmax: rat, plasma
# Method: Blood samples were collected at 0 min (predose), 5 min, 15 min, 30 min, 60 min, 120 min, and 240 min after injections. The blood was collected from right ventricle under anesthesia using a mixture of ketamine (50 mg/kg)/xylasine (8 mg/kg) in the ratio of 3:1, and 0.025 mL of a mixture for 10 g body weight was injected i.p. 10 min before planned blood collection. Blood and brain samples were collected under general anesthesia induced by i.p. injections of ketamine (50 mg/kg)/xylasine (8 mg/kg). The blood samples were taken into heparinized tubes, immediately centrifuged at 3500 rpm for 10 min, and plasma was collected. After the blood was drawn, the rat’s spinal cord was cut and the cerebral tissue was removed, and after dissection washed in PBS saline. The brain and plasma samples were immediately frozen at − 80 °C for LC/MS/MS analysis.
# Pharmacokinetic parameters were calculated by a non-compartmental approach from the average concentration values, using Phoenix WinNonlin software (Certara, Princeton, NJ 08540 USA). First order elimination rate constant (λz) was calculated by linear regression of time versus log concentration.
# The quantification of studied compounds in plasma and brain samples was done using HPLC Agilent 1100 system (Agilent Technologies, Waldbronn, Germany) coupled to the triple quadrupole mass spectrometer API 2000 (ABSciex, Framingham, Massachusetts, USA) equipped with an electrospray ion source. After preparation, the samples were injected (20 μL) onto XBridge C18 (2.1 mm × 30 mm, 3.5 μm, Waters, Milford, Massachusetts, USA) analytical column. The mobile phase consisted of ACN with 0.1% formic acid (A) and water with 0.1% formic acid (B) were delivered in gradient elution started with 90% of eluent B, increasing during 2 min to 90% of eluent A, maintained to 3 min, and then returned during 5 min to 90% of eluent B, and maintained 90% of eluent B during 5 min at a flow rate of 300 μL/min. The total time of analysis was 15 min. Electrospray ionization process was performed in positive ionization and the data acquisition was carried out in multiple reaction monitoring mode (MRM) for EMD386088 and its internal standard (nebivolol). The ion spray source settings were as follows: spray voltage: 5 kV, heater temperature: 350 °C, curtain gas: 15 psi, source gas 1: 35 psi, source gas 2: 10 psi. The ions measured were m/z 247.3 (Q1) and m/z 168.2 (Q3) for EMD386088, and m/z 406.2 (Q1) and m/z 151.1 (Q3) for IS.
# A sample volume of 50 μL of plasma or brain homogenate was transferred into the clean Eppendorf tube and spiked with 5 μL of IS solution (1 μg/mL) obtaining the final concentration of 100 ng/mL. After 5 min of mixing (1500 rpm), proteins were precipitated using 150 μL ACN. After 10 min of samples shaking (1500 rpm), the incubation step was performed (10 min, 4 °C). Next, samples were centrifuged (10,000 rpm, 10 min, 4 °C) and the supernatant was transferred into chromatographic vial for LC/MS/MS analysis. The brain homogenate was prepared maintaining the tissue: phosphate-buffered saline (PBS) at a ratio of 1:5. The homogenization was carried out employing IKA® T10 Basic ULTRA-TURRAX disperser (IKA Werke GmbH & Co. KG, Staufen, Germany). After homogenization, 50 μL of sample was collected for further preparation. All samples were stored on ice during the preparation process.
# [2] = Metabolic stability in rat liver microsomes (RLMs); type: in vitro ADME
# Method: The in silico study was performed by MetaSite 5.1.1 provided by Molecular Discovery Ltd. The highest metabolism probability sites and the prediction of the structures of metabolites were analyzed during this study by liver computational model (Cruciani et al. [2005]).
# Commercial, pooled, rat liver microsomes (RLMs) were purchased from Sigma-Aldrich (St. Louis, USA). The biotransformations were carried out using 1 mg/mL of RLMs in 200 μL of reaction buffer containing 0.1 M Tris-HCl (pH 7.4) and EMD386088 with final […] 50 μM. The reaction mixture was preincubated at 37 °C for 5 min and then, the reaction was initiated by adding 50 μL of NADPH Regeneration System (Promega, Madison, WI, USA). The reaction was terminated after 30 or 120 min by the addition of 200 μL of cold methanol. The mixture was next centrifuged at 14000 rpm for 15 min and the UPLC/MS analysis of the supernatant was performed. Mass spectra was recorded on UPLC/MS system consisted of a Waters Acquity UPLC (Waters, Milford, USA), coupled to a Waters TQD mass spectrometer (electrospray ionization mode ESI-tandem quadrupole).
# [3] = tested on: rats; design: method as in Jastrzębska-Więsek et al. [2015]; conditions: EMD386088 alone 5 mg/kg i.p., ref Jastrzębska-Więsek et al. [2015]; cited from earlier work
# [4] = tested on: dopamine D2; design: method as in Jastrzębska-Więsek et al. [2013]; conditions: ref Jastrzębska-Więsek et al. [2013]; cited from earlier work
# [5] = tested on: GABAA; design: method as in Jastrzębska-Więsek et al. [2013]; conditions: ref Jastrzębska-Więsek et al. [2013]; cited from earlier work
# [6] = tested on: 5-HT6 receptor; conditions: cited from earlier work
# [7] = ip, 2.5 mg/kg, rat plasma, EMD386088 2.5 mg/kg i.p. alone
# [8] = ip, 2.5 mg/kg, rat plasma, EMD386088 2.5 mg/kg i.p. jointly with imipramine (IMI) 15 mg/kg i.p.
# [9] = ip, 5 mg/kg, rat plasma, EMD386088 5 mg/kg i.p. alone
# [10] = rats, EMD386088 with imipramine vs alone
smiles,measurement,setting,value
"Cc1[nH]c2ccc(Cl)cc2c1C1=CCNCC1.Cl [EMD386088, 5-chloro-2-methyl-3-(1,2,3,6-tetrahydro-4-pyridinyl)-1H-indole hydrochloride]",Vd/F,"[1]; intraperitoneal, rats, EMD386088 2.5 mg/kg coadministered with imipramine 15 mg/kg, read-out: volume of distribution V d/F",32.2 L/kg
same,AUC(0-t),[1]; [7],0.0368 µg·h/mL
same,CL/F,[1]; [7],63.2 L/h/kg
same,Cmax,[1]; [7],0.0229 µg/mL
same,MRT,[1]; [7],1.31 h
same,Vd/F,"[1]; ip, 2.5 mg/kg, rat plasma, EMD386088 2.5 mg/kg i.p. alone, read-out: V d/F",102 L/kg
same,half-life,"[1]; ip, 2.5 mg/kg, rat plasma, EMD386088 2.5 mg/kg i.p. alone, read-out: t1/2",1.12 h
same,Tmax,"[1]; ip, 2.5 mg/kg, rat plasma, EMD386088 2.5 mg/kg i.p. alone, read-out: t max (converted)",0.0833 h
same,AUC(0-t),[1]; [8],0.125 µg·h/mL
same,CL/F,[1]; [8],17.4 L/h/kg
same,Cmax,[1]; [8],0.049 µg/mL
same,MRT,[1]; [8],1.55 h
same,Vd/F,"[1]; ip, 2.5 mg/kg, rat plasma, EMD386088 2.5 mg/kg i.p. jointly with imipramine (IMI) 15 mg/kg i.p., read-out: V d/F",32.2 L/kg
same,half-life,"[1]; ip, 2.5 mg/kg, rat plasma, EMD386088 2.5 mg/kg i.p. jointly with imipramine (IMI) 15 mg/kg i.p., read-out: t1/2",1.28 h
same,Tmax,"[1]; ip, 2.5 mg/kg, rat plasma, EMD386088 2.5 mg/kg i.p. jointly with imipramine (IMI) 15 mg/kg i.p., read-out: t max (converted)",1 h
same,AUC(0-t),[1]; [9],0.0755 µg·h/mL
same,CL/F,[1]; [9],62.3 L/h/kg
same,Cmax,[1]; [9],0.0452 µg/mL
same,MRT,[1]; [9],1.3 h
same,Vd/F,"[1]; ip, 5 mg/kg, rat plasma, EMD386088 5 mg/kg i.p. alone, read-out: V d/F",97.1 L/kg
same,half-life,"[1]; ip, 5 mg/kg, rat plasma, EMD386088 5 mg/kg i.p. alone, read-out: t1/2",1.08 h
same,Tmax,"[1]; ip, 5 mg/kg, rat plasma, EMD386088 5 mg/kg i.p. alone, read-out: t max (converted)",0.0833 h
same,half-life,"[1]; ip, 5 mg/kg, rats, EMD386088 alone (2.5 and 5 mg/kg) i.p., read-out: t 1/2 (terminal half-life)",1.12 h
same,Tmax,"[1]; ip, 5 mg/kg, rats, EMD386088 alone (2.5 and 5 mg/kg) i.p., read-out: t max (time to maximum concentration in the blood) (converted)",0.0833 h
same,Vd/F,"[1]; ip, rats, EMD386088 alone i.p., read-out: volume of distribution V d/F",102 L/kg
same,change of area under the concentration-time curve (AUC) on coadministration with imipramine,[1]; [10],increased three times
same,change of volume of distribution on coadministration with imipramine,[1]; [10],decreased three times
same,compound metabolized in the presence of RLMs,"[2]; RLMs 1 mg/mL, EMD386088 50 μM, after 120 min, 37 °C",~40%
same,main metabolic pathway,[2]; in silico (MetaSite) and in vitro (RLMs) studies,dehydrogenation of tetrahydropyridine moiety
same,antidepressant-like effect in the FST,[3],exerts an antidepressant-like effect
same,affinity for dopamine D2,[4],no affinity
same,affinity for GABAA,[5],no affinity
same,5-HT6 receptor functional profile,"[6]; in vitro, ref Jastrzębska-Więsek et al. [2013]",potent 5-HT6 receptor partial agonist
same,EC50,"[6]; read-out: EC50 5-HT6 receptor agonist, ref Mattsson et al. ([2005])",1 nM
